The values that follow come from patent US20120004244A1, “Bis Aromatic Compounds for Use as LTC4 Synthase Inhibitors” (BIOLIPOX AB, priority 2009, published 2012).

The target of the assay is T1, Recombinant human LTC4 synthase (Homo sapiens, UniProt Q16873).
T1 construct: made in house; host or cells: Pichia pastoris ('Piccia pastoralis' [sic])
T1 sequence (Q16873 1-150): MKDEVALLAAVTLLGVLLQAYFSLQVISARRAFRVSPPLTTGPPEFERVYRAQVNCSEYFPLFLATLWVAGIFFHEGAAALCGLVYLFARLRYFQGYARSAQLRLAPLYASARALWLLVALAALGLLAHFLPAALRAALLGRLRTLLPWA
The assay can be described thus: LTC4 synthase in vitro assay (LTA4 to LTC4, HTRF detection). The class given is biochemical. To be noted: for inhibition at 10 µM: 5 min, total concentration of title compound in the assay 10 μM. Summed up: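 Purified recombinant human LTC4 synthase expressed in Pichia (0.5 μg/mL total protein) was preincubated with inhibitor at 10 μM final for 10 min at room temperature in PBS pH 7.4 with 5 mM GSH. LTA4 was then added at 2.5 μM final, and after 5 min at room temperature LTC4 was detected by HTRF.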
Background: TR-FRET usually uses a lanthanide donor and a delayed reading to cut background.

The term IC50 denotes the point on the concentration scale where inhibition reaches its midpoint. As a reminder, the inhibition is the drop in the measured response relative to a control, in per cent. For the molecule `CN(c1ccc(Cl)cc1)c1ccc(C(=O)c2ccc(Oc3cccnc3)c(C(=O)O)c2)nc1` [1:24, 5-{5-[(4-Chlorophenyl)(methyl)amino]picolinoyl}-2-(3-pyridyloxy)benzoic acid], the IC50 amounted to 1.14 µM and the inhibition at 10 µM was determined as 86%.
With `CN(c1ccc(Cl)cc1)c1ccc(C(=O)c2ccc(-c3cccc(Cl)c3)c(C(=O)O)c2)nc1` [21:4, 3′-Chloro-4-{5-[(4-chlorophenyl)(methyl)amino]picolinoyl}biphenyl-2-carboxylic acid], the IC50 was determined as 0.704 µM.
`CN(c1ccc(Cl)cc1)c1ccc(C(=O)c2ccc(Nc3ccc(C(F)(F)F)cc3)c(C(=O)O)c2)nc1` [2:1, 5-{5-[(4-Chlorophenyl)(methyl)amino]picolinoyl}-2-(4-trifluoromethylphenyl-amino)benzoic acid]: the IC50 amounted to 0.053 µM and the inhibition at 10 µM is 99%.
`CN(c1ccc(Cl)cc1)c1ccc(C(=O)c2ccc(NC(=O)c3ccccc3C#N)c(C(=O)O)c2)nc1` [3:20, 5-{5-[(4-Chlorophenyl)(methyl)amino]picolinoyl}-2-(2-cyanobenzamido)benzoic acid]: the IC50 was found to be 3 µM.
In the case of `O=C(c1ccc(-n2nncc2-c2cccc(Cl)c2)c(C(=O)O)c1)c1ccc(N(CC2CC2)c2ccc(Cl)cc2)cn1` [17:4, 5-{5-[(4-Chlorophenyl)(cyclopropylmethyl)amino]picolinoyl}-2-(5-(3-chlorophenyl)-1,2,3-triazol-1-yl)benzoic acid], the IC50 is 0.016 µM.
Still for that read-out and setting: the value for `O=C(c1ccc(-n2nc(-c3ccccc3)cc2C(F)(F)F)c(C(=O)O)c1)c1ccc(N(CC2CC2)c2ccc(Cl)cc2)cn1` [18:4, 5-{5-[(4-Chlorophenyl)(cyclopropylmethyl)amino]picolinoyl}-2-(3-phenyl-5-trifluoromethylpyrazol-1-yl)benzoic acid] was 0.065 µM; that for `CN(c1ccc(Cl)cc1)c1ccc(C(=O)c2ccc(-n3nc(-c4cccc(Cl)c4)cc3C(F)(F)F)c(C(=O)O)c2)nc1` [18:5, 5-{5-[(4-Chlorophenyl)(methyl)amino]picolinoyl}-2-[3-(3-chlorophenyl)-5-trifluoromethylpyrazol-1-yl]benzoic acid] was 0.116 µM.
`CCOc1ccc(C(=O)c2ccc(C(=O)c3ccc(N(C)c4ccc(Cl)cc4)cn3)cc2C(=O)O)cc1` [5:9, 5-{5-[(4-Chlorophenyl)(methyl)amino]picolinoyl}-2-(4-ethoxybenzoyl)benzoic acid]: the half-maximal inhibitory concentration (IC50) stood at 0.101 µM.
On the same count and under the same terms, the result for `COc1cc(OC)cc(Oc2ccc(C(=O)c3ccc(N(CC4CC4)c4ccc(Cl)cc4)cn3)cc2C(=O)O)c1` [1:39, 5-{5-[(4-Chlorophenyl)(cyclopropylmethyl)amino]picolinoyl}-2-(3,5-dimethoxyphenoxy)benzoic acid] reads 0.07 µM.
Still for that read-out and setting: the result for `CN(c1ccc(Cl)cc1)c1ccc(C(=O)c2ccc(C(=O)C3CCCO3)c(C(=O)O)c2)nc1` (stereo not shown) [5:25, 5-{5-[(4-Chlorophenyl)(methyl)amino]picolinoyl}-2-tetrahydrofuran-2-carbonylbenzoic acid] reads 0.86 µM; that for `O=C(c1ccc(Oc2ccccc2Oc2ccccn2)c(C(=O)O)c1)c1ccc(N(CC2CC2)c2ccc(Cl)cc2)cn1` [1:44, 5-{5-[(4-Chlorophenyl)(cyclopropylmethyl)amino]picolinoyl}-2-[2-(2-pyridyloxy)phenoxy]benzoic acid], 0.057 µM.
The same measure, in the same setting: the value for `COc1ccc(C(=O)Nc2ccc(C(=O)c3ccc(N(CC4CC4)c4ccc(Cl)cc4)cn3)cc2C(=O)O)c(OC)c1` [3:22, 5-{5-[(4-Chlorophenyl)(cyclopropylmethyl)amino]picolinoyl}-2-(2,4-dimethoxy-benzamido)benzoic acid] was 0.016 µM.
Consider `CN(c1ccc(Cl)cc1)c1ccc(C(=O)c2ccc(Oc3ccccc3)c(C(=O)O)c2)cn1` [6:1], for which the IC50 is 0.667 µM and the inhibition at 10 µM was 94%.
For the molecule `C=CCN(c1ccc(C(=O)c2ccc(Oc3ccccc3)c(C(=O)O)c2)nc1)c1ccc(F)c(F)c1` [1:21, 5-{5-[(Allyl)(3,4-difluorophenyl)amino]picolinoyl}-2-phenoxybenzoic acid], the IC50 was found to be 0.295 µM and the inhibition at 10 µM is 99%.
Regarding `CN(c1ccc(Cl)cc1)c1ccc(C(=O)c2ccc(OCc3ccccc3)c(C(=O)O)c2)nc1` [12:7, 2-Benzyloxy-5-{5-[(4-chlorophenyl)(methyl)amino]picolinoyl}benzoic acid], the IC50 was determined as 0.375 µM.
Same read-out and setting: the value for `CN(c1ccc(Cl)cc1)c1ccc(C(=O)c2ccc(-c3cc(Cl)ccc3Cl)c(C(=O)O)c2)nc1` [21:7, 2′,5′-Dichloro-4-{5-[(4-chlorophenyl)(methyl)amino]picolinoyl}biphenyl-2-carboxylic acid] was 0.269 µM.
Still for that read-out and setting: the result for `O=C(c1ccc(Oc2ccccc2Oc2ccccc2F)c(C(=O)O)c1)c1ccc(N(CC2CC2)c2ccc(Cl)cc2)cn1` [1:46, 5-{5-[(4-Chlorophenyl)(cyclopropylmethyl)amino]picolinoyl}-2-[2-(2-fluorophenoxy)phenoxy]benzoic acid] reads 0.04 µM; that for `O=C(Nc1ccc(C(=O)c2ccc(N(CC3CC3)c3ccc(Cl)cc3)cn2)cc1C(=O)O)c1ccc2c(c1)OCCO2` [3:25, 5-{5-[(4-Chlorophenyl)(cyclopropylmethyl)amino]picolinoyl}-2-(3,4-ethylene-dioxybenzamido)benzoic acid], 0.011 µM; that for `N#Cc1ccccc1Oc1ccccc1Oc1ccc(C(=O)c2ccc(N(CC3CC3)c3ccc(Cl)cc3)cn2)cc1C(=O)O` [1:32, 5-{5-[(4-Chlorophenyl)(cyclopropylmethyl)amino]picolinoyl}-2-[2-(2-cyanophenoxy)phenoxy]benzoic acid], 0.02 µM.
On to `COc1ccc(C(=O)Nc2ccc(C(=O)c3ccc(N(C)c4ccc(Cl)cc4)cn3)cc2C(=O)O)c(C)c1` [3:32, 5-{5-[(4-Chlorophenyl)(methyl)amino]picolinoyl}-2-(4-methoxy-2-methylbenz-amido)benzoic acid], for which the IC50 came out at 0.042 µM.
Turning to `CN(c1ccc(C(C)(C)C)cc1)c1ccc(C(=O)c2ccc(Oc3ccccc3)c(C(=O)O)c2)nc1` [1:17, 5-{5-[(4-tert-Butylphenyl)(methyl)amino]picolinoyl}-2-phenoxybenzoic acid], the IC50 was found to be 1.31 µM and the inhibition at 10 µM came out at 96%.
Turning to `O=C(c1ccc(Oc2ccccc2Oc2ccc(F)cc2F)c(C(=O)O)c1)c1ccc(N(CC2CC2)c2ccc(Cl)cc2)cn1` [1:42, 5-{5-[(4-Chlorophenyl)(cyclopropylmethyl)amino]picolinoyl}-2-[2-(2,4-difluorophenoxy)phenoxy]benzoic acid], the IC50 worked out at 0.052 µM.
Regarding `O=C(c1ccc(Oc2ccccc2)c(C(=O)O)c1)c1ccc(N(CC2CCC2)c2ccc(Cl)cc2)cn1` [1:5, 5-{5-[(4-Chlorophenyl)(cyclobutylmethyl)amino]picolinoyl}-2-phenoxybenzoic acid], the IC50 was 0.07 µM and the inhibition at 10 µM was 100%.
Take `O=C(c1ccc(Oc2ccccc2)c(C(=O)O)c1)c1ccc(N(CC2CC2)c2ccc(F)c(F)c2)cn1` [1:19, 5-{5-[(Cyclopropylmethyl)(3,4-difluorophenyl)amino]picolinoyl}-2-phenoxybenzoic acid]: the IC50 was found to be 0.13 µM and the inhibition at 10 µM is 100%.
As to `CN(c1ccc(Cl)cc1)c1ccc(C(=O)c2ccc(-n3nc(-c4ccc(Cl)cc4)cc3C(F)(F)F)c(C(=O)O)c2)nc1` [18:6, 5-{5-[(4-Chlorophenyl)(methyl)amino]picolinoyl}-2-[3-(4-chlorophenyl)-5-trifluoromethylpyrazol-1-yl]benzoic acid], the IC50 was determined as 0.115 µM.
For `CN(c1ccc(Cl)cc1)c1ccc(C(=O)c2ccc(Oc3ccccc3)c(C(=O)O)n2)cc1` [9:1, 6-{4-[(4-Chlorophenyl)(methyl)amino]benzoyl}-3-phenoxypicolinic acid], the concentration for half-maximal inhibition (IC50) was determined as 0.742 µM and the inhibition at 10 µM came out at 94%.
In the case of `C#CCN(c1ccc(C(=O)c2ccc(Oc3ccccc3F)c(C(=O)O)c2)nc1)c1ccc(Cl)cc1F` [1:33, 5-{5-[(4-Chloro-2-fluorophenyl)(2-propynyl)amino]picolinoyl}-2-(2-fluorophenoxy)benzoic acid], the IC50 is 0.351 µM.
The same measure, in the same setting: the value for `COc1cccc(C(=O)Nc2ccc(C(=O)c3ccc(N(C)c4ccccc4)cn3)cc2C(=O)O)c1` [3:33, 2-(3-Methoxybenzamido)-5-{5-[(methyl)(phenyl)amino]picolinoyl}benzoic acid] was 0.226 µM.
As for `O=C(c1ccc(Oc2ccccc2)c(C(=O)O)c1)c1ccc(N(CC2CC2)c2ccc(Cl)cc2)cn1` [1:4, 5-{5-[(4-Chlorophenyl)(cyclopropylmethyl)amino]picolinoyl}-2-phenoxybenzoic acid], the IC50 was 0.062 µM and the inhibition at 10 µM was determined as 100%.
On to `O=C(c1ccc(Oc2ccccc2)c(C(=O)O)c1)c1ccc(OCc2ccc(C(F)(F)F)cc2)cn1` [11:6, 2-Phenoxy-5-[5-(4-trifluoromethylbenzyloxy)picolinoyl]benzoic acid], for which the IC50 amounted to 0.351 µM.
As to `CSc1ccccc1Oc1ccc(C(=O)c2ccc(N(C)c3ccc(Cl)cc3)cn2)cc1C(=O)O` [1:23, 5-{5-[(4-Chlorophenyl)(methyl)amino]picolinoyl}-2-(2-methylsulfanylphenoxy)benzoic acid], the IC50 came out at 0.362 µM and the inhibition at 10 µM was 100%.
For the molecule `COc1cccc(CNc2ccc(C(=O)c3ccc(N(C)c4ccc(Cl)cc4)cn3)cc2C(=O)O)c1` [2:7, 5-{5-[(4-Chlorophenyl)(methyl)amino]picolinoyl}-2-(3-methoxybenzylamino)benzoic acid], the IC50 is 0.133 µM.
Same read-out and setting: the result for `CN(c1ccc(Cl)cc1)c1ccc(C(=O)c2ccc(C(=O)c3ccccc3C(F)(F)F)c(C(=O)O)c2)nc1` [5:29] reads 0.245 µM.
